Source: PubChem BioAssay (NCI)
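Cultured in 96-well plates, cells were exposed to test compound for 48 hours across five concentrations. The concentration for 50% growth inhibition is given as GI50. Definition used: TGI = concentration required for complete inhibition of growth.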

Legend:
Assay in all cases: NCI-60 cell line screen, 48 h
[1] = tested on: DU-145 prostate
[2] = tested on: OVCAR-5 ovarian
[3] = tested on: SF-539 CNS
[4] = tested on: U251 CNS
[5] = tested on: COLO 205 colon
[6] = tested on: HT29 colon
[7] = tested on: NCI-H460 lung
[8] = tested on: M14 melanoma
[9] = tested on: CCRF-CEM leukemia
[10] = tested on: OVCAR-4 ovarian

| SMILES | GI50 [1] [µM] | TGI [1] [µM] | GI50 [2] [µM] | TGI [2] [µM] | GI50 [3] [µM] | TGI [3] [µM] | GI50 [4] [µM] | TGI [4] [µM] | GI50 [5] [µM] | TGI [5] [µM] | GI50 [6] [µM] | TGI [6] [µM] | GI50 [7] [µM] | TGI [7] [µM] | GI50 [8] [µM] | TGI [8] [µM] | GI50 [9] [µM] | TGI [9] [µM] | GI50 [10] [µM] | TGI [10] [µM] |
| --- | --- | --- | --- | --- | --- | --- | --- | --- | --- | --- | --- | --- | --- | --- | --- | --- | --- | --- | --- | --- |
| Cc1cc2nc(-c3ccc(O)c(O)c3)n(Cc3ccc(O)c(O)c3)c2cc1C | 40.7 | > 100 | > 100 | > 100 | 19.7 | > 100 | 5 | > 100 | 24.5 | > 100 | 45.1 | > 100 | 13.4 | 43.1 | 39.2 | > 100 | 4.23 | 25.5 | 54.9 | > 100 |
| CNc1nc(-c2ccc3c(N)n[nH]c3c2)cc(N2C[C@@H](C(=O)NC3CCCCC3)CC[C@H]2C)n1 | 5.91 | 21.3 | 3.43 | 16.8 | 3.76 | 17.8 | 3.88 | 17.9 | 1.54 | 12 | 2.25 | 17.1 | 1.5 | 15.7 | 3.02 | 20.1 | 1.78 | > 48.1 | 3.6 | 23.1 |
| CCOc1ccccc1N=Cc1c2ccccc2cc2ccccc12 | – | 58.4 | – | 68.9 | – | > 71.4 | – | > 63.9 | – | > 88.7 | – | 54.2 | – | > 100 | – | 41.1 | – | > 58.1 | – | > 74 |
| CNC(=O)c1cc(-c2ccc(F)cc2)cc(-c2ccc(S(=O)(=O)N3CCCC3)cc2)c1N | > 25 | > 25 | > 25 | > 25 | > 25 | > 25 | 15.1 | > 25 | 23.5 | > 25 | 15.7 | > 25 | 15.1 | > 25 | > 25 | > 25 | > 20.7 | > 25 | 16.1 | > 25 |
| CC[C@@H](C(=O)[C@@H](C)[C@@H](O)[C@H](C)[C@@H]1O[C@@H]([C@@H](CC)C(=O)O)CC[C@@H]1C)[C@H]1O[C@]2(C=C[C@@H](O)[C@]3(CC[C@@](C)([C@H]4CC[C@](O)(CC)[C@H](C)O4)O3)O2)[C@H](C)C[C@@H]1C | 1.71 | 28.5 | 6.61 | 80.5 | 0.806 | 5.27 | 0.149 | 8.91 | 0.489 | 11 | 0.331 | 15 | 0.441 | 11.9 | 1.39 | 3.05 | 0.255 | 12.7 | 1.12 | 34 |
| N#Cc1cc2c(cc1Cl)SC(=Nc1ccccc1)N(S(=O)(=O)c1ccc(Br)s1)S2(=O)=O | 20.6 | 43.4 | 19.7 | 39.2 | 21.6 | 39 | 19.4 | 42.5 | 49.1 | > 100 | 32.3 | > 100 | 23.1 | 53 | 14.8 | 30.6 | 21.8 | 45 | 20.9 | 44 |
| COc1ccc(/C=C/C(=O)c2ccc(Nc3nc(Nc4ccc(F)cc4)nc(Nc4ccc(F)cc4)n3)cc2)cc1 | 40.2 | > 100 | 40.2 | > 100 | 23.2 | 60.1 | 16.7 | 56.2 | 9.57 | 29.6 | 18.1 | > 100 | 13 | 72.4 | 12.3 | 36.7 | 5.15 | 48.2 | 27.4 | > 100 |
| O=C1C(OC(=O)c2ccccc2)=C(c2ccc(O)cc2)C(=O)C(OC(=O)c2ccccc2)=C1c1ccc(O)cc1 | – | > 100 | – | > 100 | – | > 100 | – | > 100 | – | > 100 | – | > 100 | – | > 100 | – | > 100 | – | > 100 | – | > 100 |
| Nc1ccn(C2CC3OCC3O2)c(=O)n1 (stereo not given) | – | > 100 | – | > 100 | – | > 100 | – | > 100 | – | > 100 | – | > 100 | – | > 100 | – | > 100 | – | > 100 | – | > 100 |
| Cc1c2ccccc2c(C)n2c1nc1cc(Cl)c(Cl)cc12 | > 100 | > 100 | > 100 | > 100 | > 100 | > 100 | 34.6 | > 100 | 19.2 | > 100 | 31 | > 100 | 27.4 | > 100 | > 100 | > 100 | 43.9 | > 100 | 22.4 | > 100 |
| C[C@H]1CCC2C(OC(=O)[C@@H]2CN(C)C)[C@]2(C)C(=O)C=CC12O (stereo not given in full) | – | 23.2 | – | 34.1 | – | 12 | – | 38.8 | – | 17.9 | – | 16 | – | 28.7 | – | 14.8 | – | 9.22 | – | 33.4 |
| O=C1/C(=C/c2ccc(O)cc2)Oc2ccccc21 | – | > 100 | – | > 100 | – | > 100 | – | > 100 | – | > 100 | – | > 100 | – | > 100 | – | > 100 | – | > 100 | – | > 100 |
| Cc1nc2sc(C(=O)Nc3ccccc3)c(N)c2cc1C(=O)c1ccccc1 | 1.73 | > 50 | 2.9 | > 50 | 1.66 | > 50 | 2.09 | > 50 | 1.86 | 7.55 | 1.75 | 9.54 | 1.66 | > 50 | 1.56 | > 50 | 1.69 | > 50 | 34.7 | > 50 |
